Laboratory results reported in article PMC4579270, “Identification and Characterization of an Irreversible Inhibitor of CDK2” (Chemistry & Biology, 2015).

How the values were obtained:
Format in all cases: biochemical
ABL = ABL (Homo sapiens, UniProt P00519); experiment: Dundee protein kinase screen; conditions: read-out: %Remaining activity at 1µM NU6300
Protocol: (§1) Prior to determining its cellular activity, we carried out a screen to assess its selectivity against a panel of 131 protein kinases under conditions that would not distinguish between a reversible or irreversible mode of action. […] These 13 kinases and 29 additional kinases, selected for their known sensitivity to other inhibitors within the purine series, were then tested in a modified screening format in which the assay was repeated following a 4-hr pre-incubation (Table S3B). […] However, conformational flexibility around the active site may promote such an interaction with a residue from another part of the structure ([Martin et al., 2012]).
(§2) Table S3, Related to Figure 4. NCL-0006300 protein kinase selectivity. (A) NU6300 was tested at a single concentration of 1µM against 131 protein kinases present in a Dundee protein kinase screen (Bain et al., 2007). Values given are % activity remaining and are the average of duplicate measurements: 0-25% (red), 26-50% (yellow), 51-80% (black) and above 81% (green). The kinase domain sequences (as defined by UniProt) of […]
(§3) have a lysine residue at a position close to CDK2 Lys88 or Lys89. However, in the structure of tyrosine-protein kinase BTK (PDB ID: 3GEN) the residue equivalent to CDK2 Asp86 is Cys481 and therefore there is the potential for a covalent adduct to be formed through this side chain. […]

AMPK = experiment: Dundee protein kinase screen
Protocol: as §1, §2, §3

BRSK2 = BRSK2 (Homo sapiens, UniProt Q8IWQ3); experiment: Dundee protein kinase screen; conditions: BRSK2, 1µM; read-out: %Remaining activity at 1µM NU6300
Protocol: as §1, §2, §3

BTK = BTK (Homo sapiens, UniProt Q06187); experiment: Dundee protein kinase screen; conditions: read-out: %Remaining activity at 1µM NU6300
Protocol: as §1, §2, §3

CDK2-Cyclin A = CDK2-Cyclin A (Homo sapiens, UniProt P24941); experiment: Dundee protein kinase screen; conditions: read-out: %Remaining activity at 1µM NU6300
Protocol: as §1, §2, §3

CHK1 = biological target: T1, CHK1 (Homo sapiens, UniProt O14757); experiment: Dundee protein kinase screen; conditions: CHK1, 1µM; read-out: %Remaining activity at 1µM NU6300
T1 sequence (O14757 1-476): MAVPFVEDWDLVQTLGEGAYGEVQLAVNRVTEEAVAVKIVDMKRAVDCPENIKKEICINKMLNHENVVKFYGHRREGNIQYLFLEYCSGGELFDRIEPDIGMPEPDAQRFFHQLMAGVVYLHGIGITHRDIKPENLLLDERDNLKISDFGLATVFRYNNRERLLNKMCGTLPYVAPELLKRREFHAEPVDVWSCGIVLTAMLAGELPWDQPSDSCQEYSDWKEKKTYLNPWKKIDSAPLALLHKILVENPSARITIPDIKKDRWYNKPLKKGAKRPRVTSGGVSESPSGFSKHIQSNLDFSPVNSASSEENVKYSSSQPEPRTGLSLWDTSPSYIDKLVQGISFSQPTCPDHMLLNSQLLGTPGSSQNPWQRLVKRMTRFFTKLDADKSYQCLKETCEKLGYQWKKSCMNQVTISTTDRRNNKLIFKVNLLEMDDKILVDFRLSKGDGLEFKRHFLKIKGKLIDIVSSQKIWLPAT
Protocol: as §1, §2, §3

CLK2 = CLK2 (Homo sapiens, UniProt P49760); experiment: Dundee protein kinase screen; conditions: CLK2, 1µM; read-out: %Remaining activity at 1µM NU6300
Protocol: as §1, §2, §3

EPH-B4 = EPH-B4 (Homo sapiens, UniProt P54760); experiment: Dundee protein kinase screen; conditions: EPH-B4, 1µM; read-out: %Remaining activity at 1µM NU6300
Protocol: as §1, §2, §3

IKKe = IKKe (Homo sapiens, UniProt Q14164); experiment: Dundee protein kinase screen; conditions: read-out: %Remaining activity at 1µM NU6300
Protocol: as §1, §2, §3

MAPKAP-K2 = MAPKAP-K2 (Homo sapiens, UniProt P49137); experiment: Dundee protein kinase screen; conditions: MAPKAP-K2, 1µM; read-out: %Remaining activity at 1µM NU6300
Protocol: as §1, §2, §3

MARK4 = biological target: T2, MARK4 (Homo sapiens, UniProt Q96L34); experiment: Dundee protein kinase screen; conditions: MARK4, 1µM; read-out: %Remaining activity at 1µM NU6300
T2 sequence (Q96L34 1-752): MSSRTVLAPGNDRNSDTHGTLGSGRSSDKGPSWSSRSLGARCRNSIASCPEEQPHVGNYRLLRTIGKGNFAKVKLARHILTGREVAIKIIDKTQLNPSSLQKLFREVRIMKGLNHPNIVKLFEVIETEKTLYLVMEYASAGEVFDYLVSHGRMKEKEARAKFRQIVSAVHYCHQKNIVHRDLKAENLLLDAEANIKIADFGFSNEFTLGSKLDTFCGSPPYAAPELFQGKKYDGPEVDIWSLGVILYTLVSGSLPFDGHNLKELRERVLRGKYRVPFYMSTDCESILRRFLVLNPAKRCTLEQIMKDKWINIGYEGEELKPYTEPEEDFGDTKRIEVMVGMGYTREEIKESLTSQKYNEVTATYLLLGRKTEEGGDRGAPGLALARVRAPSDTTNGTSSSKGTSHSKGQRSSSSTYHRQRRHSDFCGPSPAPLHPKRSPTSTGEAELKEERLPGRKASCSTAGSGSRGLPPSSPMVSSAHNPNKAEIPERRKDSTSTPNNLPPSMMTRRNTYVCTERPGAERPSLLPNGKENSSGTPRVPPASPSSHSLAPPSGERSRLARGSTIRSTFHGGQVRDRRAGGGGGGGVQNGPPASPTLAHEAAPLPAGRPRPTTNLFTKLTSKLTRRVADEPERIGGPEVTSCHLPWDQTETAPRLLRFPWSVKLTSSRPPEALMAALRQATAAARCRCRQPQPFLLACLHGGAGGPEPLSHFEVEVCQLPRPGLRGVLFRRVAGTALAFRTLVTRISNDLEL
Protocol: as §1, §2, §3

MLK1 = MLK1 (Homo sapiens, UniProt P80192); experiment: Dundee protein kinase screen; conditions: MLK1, 1µM; read-out: %Remaining activity at 1µM NU6300
Protocol: as §1, §2, §3

CDK2 = CDK2 (Homo sapiens, UniProt P24941); experiment: CDK2 kinase inhibition assay; conditions: read-out: CDK2 median inhibitory concentration [IC50]
Protocol: CDK2/cyclin A kinase assays were carried out using a method modified from [Brown et al. (1999)] or by using the ADP-Glo assay (Promega) essentially as described by the manufacturers. A full description of the assay formats is provided in the Supplemental Experimental Procedures.

Sequence of MLK1 (P80192 whole entry): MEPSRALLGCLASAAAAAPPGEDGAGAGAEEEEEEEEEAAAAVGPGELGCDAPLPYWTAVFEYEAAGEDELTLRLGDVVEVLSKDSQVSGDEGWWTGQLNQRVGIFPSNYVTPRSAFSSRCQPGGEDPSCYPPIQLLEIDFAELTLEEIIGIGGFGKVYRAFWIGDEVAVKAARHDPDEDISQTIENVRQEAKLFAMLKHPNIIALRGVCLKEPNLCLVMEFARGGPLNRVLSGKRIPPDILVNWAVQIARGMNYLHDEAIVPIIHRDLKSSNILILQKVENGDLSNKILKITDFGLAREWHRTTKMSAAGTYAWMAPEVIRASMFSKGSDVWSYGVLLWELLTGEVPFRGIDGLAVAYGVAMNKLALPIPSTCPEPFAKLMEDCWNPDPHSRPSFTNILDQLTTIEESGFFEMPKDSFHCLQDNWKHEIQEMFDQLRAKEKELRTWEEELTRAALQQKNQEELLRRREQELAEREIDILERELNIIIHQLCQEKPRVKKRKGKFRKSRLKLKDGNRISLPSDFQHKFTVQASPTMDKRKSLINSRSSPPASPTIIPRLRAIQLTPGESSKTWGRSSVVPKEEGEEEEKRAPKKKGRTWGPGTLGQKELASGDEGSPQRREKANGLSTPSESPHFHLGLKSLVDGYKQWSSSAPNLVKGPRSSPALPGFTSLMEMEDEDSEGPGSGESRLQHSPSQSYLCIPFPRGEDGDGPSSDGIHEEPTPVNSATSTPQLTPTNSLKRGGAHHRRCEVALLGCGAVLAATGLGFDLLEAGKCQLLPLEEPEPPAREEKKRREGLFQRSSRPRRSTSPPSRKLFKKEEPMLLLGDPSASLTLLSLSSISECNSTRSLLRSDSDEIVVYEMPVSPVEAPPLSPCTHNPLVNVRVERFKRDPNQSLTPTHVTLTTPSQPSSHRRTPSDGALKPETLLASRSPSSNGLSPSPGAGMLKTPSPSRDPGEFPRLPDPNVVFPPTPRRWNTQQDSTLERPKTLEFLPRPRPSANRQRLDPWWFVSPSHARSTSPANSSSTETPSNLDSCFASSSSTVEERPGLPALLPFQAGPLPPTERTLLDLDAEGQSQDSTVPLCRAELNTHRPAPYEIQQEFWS
Sequence of EPH-B4 (P54760 16-987): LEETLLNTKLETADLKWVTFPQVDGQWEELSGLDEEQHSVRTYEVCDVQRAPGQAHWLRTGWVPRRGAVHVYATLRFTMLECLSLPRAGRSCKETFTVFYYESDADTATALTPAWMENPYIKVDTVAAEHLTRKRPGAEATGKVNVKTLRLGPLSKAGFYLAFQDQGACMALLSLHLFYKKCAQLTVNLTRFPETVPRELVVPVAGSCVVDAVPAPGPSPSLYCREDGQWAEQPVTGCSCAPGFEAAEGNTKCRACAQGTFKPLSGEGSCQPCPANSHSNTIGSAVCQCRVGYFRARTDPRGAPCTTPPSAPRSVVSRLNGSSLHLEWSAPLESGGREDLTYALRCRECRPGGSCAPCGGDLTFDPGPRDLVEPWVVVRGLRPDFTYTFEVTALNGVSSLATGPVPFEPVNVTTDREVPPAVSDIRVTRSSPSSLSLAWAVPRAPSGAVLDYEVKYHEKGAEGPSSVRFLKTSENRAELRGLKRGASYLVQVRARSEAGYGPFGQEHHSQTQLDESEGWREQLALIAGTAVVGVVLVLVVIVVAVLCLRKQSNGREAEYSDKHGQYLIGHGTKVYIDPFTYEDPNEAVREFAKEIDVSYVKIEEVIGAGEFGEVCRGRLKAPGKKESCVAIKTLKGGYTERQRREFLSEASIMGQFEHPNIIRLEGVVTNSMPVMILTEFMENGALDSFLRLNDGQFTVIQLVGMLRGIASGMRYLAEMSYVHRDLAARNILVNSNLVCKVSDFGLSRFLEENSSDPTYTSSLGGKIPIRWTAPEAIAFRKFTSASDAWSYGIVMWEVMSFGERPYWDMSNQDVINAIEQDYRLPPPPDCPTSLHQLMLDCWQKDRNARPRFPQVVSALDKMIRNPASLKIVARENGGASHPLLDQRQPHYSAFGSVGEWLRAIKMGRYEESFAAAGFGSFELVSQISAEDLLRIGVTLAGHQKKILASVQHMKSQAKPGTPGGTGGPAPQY
Sequence of IKKe (Q14164 whole entry): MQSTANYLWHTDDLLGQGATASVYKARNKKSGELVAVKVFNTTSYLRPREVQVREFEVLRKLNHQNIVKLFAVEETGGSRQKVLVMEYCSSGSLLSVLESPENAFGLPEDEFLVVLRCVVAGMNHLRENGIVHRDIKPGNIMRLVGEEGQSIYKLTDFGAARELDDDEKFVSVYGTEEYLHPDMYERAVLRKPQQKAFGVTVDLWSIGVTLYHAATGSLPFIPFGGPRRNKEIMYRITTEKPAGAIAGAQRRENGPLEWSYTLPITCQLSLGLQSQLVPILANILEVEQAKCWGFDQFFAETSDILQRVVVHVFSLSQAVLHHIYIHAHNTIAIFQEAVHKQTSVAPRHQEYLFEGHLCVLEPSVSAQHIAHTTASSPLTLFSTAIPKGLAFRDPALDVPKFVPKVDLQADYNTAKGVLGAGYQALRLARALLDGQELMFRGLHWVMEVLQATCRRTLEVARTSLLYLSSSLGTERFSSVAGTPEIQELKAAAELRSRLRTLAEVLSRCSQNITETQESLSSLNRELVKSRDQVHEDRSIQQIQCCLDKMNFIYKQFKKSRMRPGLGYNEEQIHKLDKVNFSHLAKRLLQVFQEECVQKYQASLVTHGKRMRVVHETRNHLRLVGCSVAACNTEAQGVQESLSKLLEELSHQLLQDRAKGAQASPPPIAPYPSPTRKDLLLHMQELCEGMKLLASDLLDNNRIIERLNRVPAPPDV
Sequence of ABL (P00519 whole entry): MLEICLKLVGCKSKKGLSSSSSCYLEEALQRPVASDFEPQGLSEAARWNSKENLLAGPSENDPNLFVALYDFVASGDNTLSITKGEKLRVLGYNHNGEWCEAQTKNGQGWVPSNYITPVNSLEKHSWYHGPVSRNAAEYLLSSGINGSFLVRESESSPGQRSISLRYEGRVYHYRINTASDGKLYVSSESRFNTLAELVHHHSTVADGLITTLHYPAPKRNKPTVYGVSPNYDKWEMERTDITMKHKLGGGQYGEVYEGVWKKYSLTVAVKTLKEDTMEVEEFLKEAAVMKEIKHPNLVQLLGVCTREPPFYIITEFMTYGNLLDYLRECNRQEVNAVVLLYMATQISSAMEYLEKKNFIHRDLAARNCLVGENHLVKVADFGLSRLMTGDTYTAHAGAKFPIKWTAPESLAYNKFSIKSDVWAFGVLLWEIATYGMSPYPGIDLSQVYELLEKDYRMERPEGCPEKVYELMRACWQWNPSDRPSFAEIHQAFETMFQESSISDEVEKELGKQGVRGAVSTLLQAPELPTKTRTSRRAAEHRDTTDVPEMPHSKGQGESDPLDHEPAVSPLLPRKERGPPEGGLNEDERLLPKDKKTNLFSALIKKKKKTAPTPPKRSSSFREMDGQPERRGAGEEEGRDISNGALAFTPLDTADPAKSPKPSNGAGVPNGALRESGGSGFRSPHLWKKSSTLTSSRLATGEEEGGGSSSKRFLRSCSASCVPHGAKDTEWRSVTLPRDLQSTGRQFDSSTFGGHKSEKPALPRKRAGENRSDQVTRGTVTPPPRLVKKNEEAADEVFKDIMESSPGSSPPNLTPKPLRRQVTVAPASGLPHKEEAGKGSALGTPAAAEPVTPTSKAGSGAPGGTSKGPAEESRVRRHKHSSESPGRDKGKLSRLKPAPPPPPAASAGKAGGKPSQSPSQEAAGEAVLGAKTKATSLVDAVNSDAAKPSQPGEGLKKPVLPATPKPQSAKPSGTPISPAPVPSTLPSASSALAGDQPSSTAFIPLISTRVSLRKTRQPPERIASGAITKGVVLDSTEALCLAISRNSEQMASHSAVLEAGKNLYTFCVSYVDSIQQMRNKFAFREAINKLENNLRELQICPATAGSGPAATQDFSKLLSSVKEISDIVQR
Sequence of MAPKAP-K2 (P49137 whole entry): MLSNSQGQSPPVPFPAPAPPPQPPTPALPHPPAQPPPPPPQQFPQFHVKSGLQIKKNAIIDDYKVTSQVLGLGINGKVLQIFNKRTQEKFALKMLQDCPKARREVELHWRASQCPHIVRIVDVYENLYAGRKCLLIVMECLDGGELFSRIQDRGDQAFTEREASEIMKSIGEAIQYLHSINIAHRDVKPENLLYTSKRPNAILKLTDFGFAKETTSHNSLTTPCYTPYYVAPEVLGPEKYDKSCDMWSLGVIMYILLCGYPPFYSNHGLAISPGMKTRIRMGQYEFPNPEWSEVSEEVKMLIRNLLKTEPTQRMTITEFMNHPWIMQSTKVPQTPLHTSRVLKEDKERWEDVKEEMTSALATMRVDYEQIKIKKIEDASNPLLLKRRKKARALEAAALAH
Sequence of BRSK2 (Q8IWQ3 whole entry): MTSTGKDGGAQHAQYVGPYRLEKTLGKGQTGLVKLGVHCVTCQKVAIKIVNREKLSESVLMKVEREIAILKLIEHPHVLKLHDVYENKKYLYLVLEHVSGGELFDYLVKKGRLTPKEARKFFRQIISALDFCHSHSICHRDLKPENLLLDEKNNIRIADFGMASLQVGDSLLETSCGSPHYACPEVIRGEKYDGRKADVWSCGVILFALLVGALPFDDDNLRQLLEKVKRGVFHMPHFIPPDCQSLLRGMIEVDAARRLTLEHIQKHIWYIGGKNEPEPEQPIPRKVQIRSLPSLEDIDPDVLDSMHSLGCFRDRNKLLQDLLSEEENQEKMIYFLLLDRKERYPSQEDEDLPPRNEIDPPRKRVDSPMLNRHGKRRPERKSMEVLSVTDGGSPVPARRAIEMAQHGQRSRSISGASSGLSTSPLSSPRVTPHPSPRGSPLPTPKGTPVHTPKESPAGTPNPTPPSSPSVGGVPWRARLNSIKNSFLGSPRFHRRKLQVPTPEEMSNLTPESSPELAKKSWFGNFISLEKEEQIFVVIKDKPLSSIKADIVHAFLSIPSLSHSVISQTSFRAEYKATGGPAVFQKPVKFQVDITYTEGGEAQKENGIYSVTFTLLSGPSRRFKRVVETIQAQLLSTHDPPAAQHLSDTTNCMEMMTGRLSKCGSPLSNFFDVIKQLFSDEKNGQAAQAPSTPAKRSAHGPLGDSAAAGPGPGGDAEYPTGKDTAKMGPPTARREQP

Q: With C=CS(=O)(=O)c1ccc(Nc2nc(OCC3CCCCC3)c3nc[nH]c3n2)cc1 [NU6300, 6-(cyclohexylmethoxy)-N-(4-(vinylsulfonyl)phenyl)-9H-purin-2-amine] as the molecule, how does the remaining activity at 1 µM (ABL) read?
A: 56%

Q: What about the “%Remaining activity at 1µM NU6300” value (AMPK) of the same molecule?
A: 47%

Q: And the remaining activity at 1 µM (BRSK2)?
A: 60%

Q: And the remaining activity at 1 µM (BTK)?
A: 17%

Q: And the remaining activity at 1 µM (CDK2-Cyclin A)?
A: 27%

Q: And the remaining activity at 1 µM (CHK1)?
A: 38%

Q: What about the remaining activity at 1 µM (CLK2) of the same molecule?
A: 27%

Q: What about the remaining activity at 1 µM (EPH-B4) of the same molecule?
A: 90%

Q: What about the remaining activity at 1 µM (IKKe) of the same molecule?
A: 68%

Q: And the remaining activity at 1 µM (MAPKAP-K2)?
A: 93%

Q: And the remaining activity at 1 µM (MARK4)?
A: 37%

Q: And the remaining activity at 1 µM (MLK1)?
A: 8%

Q: With CCS(=O)(=O)c1ccc(Nc2nc(OCC3CCCCC3)c3nc[nH]c3n2)cc1 [NU6310, 6-(cyclohexylmethoxy)-N-(4-(ethylsulfonyl)phenyl)-9H-purin-2-amine] as the molecule, how does the IC50 (CDK2) read?
A: 160 nM
